Measurements published in patent US4582698A, “Process for imaging cardiac infarcts” (The Dow Chemical Company, priority 1983, dated 1986).
“Also recorded” adds a separate entry of the source. Like-named read-outs stand apart in the source and are kept apart here.

Columns and labels:
damaged cardiac tissue = assay: Ratio of activity in damaged vs normal cardiac tissue of rats (Table II); type: in vivo, rat; details: isoproterenol-damaged rats vs control rats; 60 minutes after injection
Protocol: The heart was excised, cut open, and blotted. […] Other organs were also dissected and weighed.
Control animals (animals not injected with isoproterenol) were also injected with several ^99m Tc complexes.

[1] = Tissue distribution of Tc-99m agents in rats with isoproterenol-induced heart damage (Table I); details: 60 minutes after i.v. (tail vein) injection
Protocol: (§1) The dosage used was proportional to the weight of the rats (30 mg isoproterenol hydrochloride/kilogram of body weight).
(§2) After five hours, the animals were injected with 50 μl (~1 mCi) of the above radioactive solution via the tail vein. The animals were killed by cervical dislocation 60 minutes after the injection of the technetium complex. The heart was excised, cut open, and blotted. Heart tissue was then washed with isotonic saline solution and weighed. Other organs were also dissected and weighed. The amount of radiation in each tissue was quantitatively determined using a NaI scintillation counter. Fifty μl standards of the complex solution were also counted. […] The levels are expressed as a percent of the original dose of radioactivity which was taken up by the tissue or fluid (blood).

infarcts = details: cited from earlier work
[2] = in vivo; cited from earlier work
[3] = rat, in vivo, iv, 1 h
Protocol: as §1, §2

## O.O.O=P([O-])([O-])CP(=O)([O-])[O-].[99Tc+4] [Methylenediphosphonate, ^99m Tc-methylenediphosphonate]
Damaged cardiac tissue
  % Dose/gram in Damaged Heart/% Dose/gram in Normal Heart: 20.5
[1]; blood
  % Dose/g of Tissue (Fluid), Blood: 0.051 % Dose/g
[1]; liver
  % Dose/g of Tissue (Fluid), Liver: 0.060 % Dose/g
[1]; muscle
  % Dose/g of Tissue (Fluid), Muscle: 0.018 % Dose/g
infarcts; in vivo
  accumulation in infarcts: shown to accumulate in infarcts

## ^99m Tc-hydroxyethylenediphosphonate
infarcts; in vivo
  accumulation in infarcts: shown to accumulate in infarcts

## O=P([O-])([O-])OP(=O)([O-])[O-].[99Tc] [Pyrophosphate, ^99m Tc-pyrophosphate]
[2]
  blood clearance: relatively slow
Damaged cardiac tissue
  % Dose/gram in Damaged Heart/% Dose/gram in Normal Heart: 21.4
[3]
  % Dose/g of Tissue (Fluid), Blood: 0.182 % Dose/g
  % Dose/g of Tissue (Fluid), Liver: 0.131 % Dose/g
  % Dose/g of Tissue (Fluid), Muscle: 0.026 % Dose/g
infarcts; compared to other ^99m Tc bone seeking agents
  infarct to bone ratio: relatively high
infarcts; in vivo
  detection of recent infarcts: inability to detect recent infarcts
infarcts; ribs and sternum / overlying skeletal structures
  interference from skeletal structures in infarct imaging: less interference from the ribs and sternum; also recorded: interference due to uptake in overlying skeletal structures

## ^99m Tc-glucoheptonate
infarcts; in vivo
  accumulation in infarcts: shown to accumulate in infarcts
